# Reference: PMC6036575, “Reincarnation of Bacteriocins From the Lactobacillus Pangenomic Graveyard” (Frontiers in Microbiology, 2018)
# “Also recorded” adds a separate entry of the source.
# Legend:
# [1] = tested on: E. saccharolyticus DPC 4902; test: Well diffusion assay, spectrum of bacteriocin activity; assay type: cell-based; settings: 50 μl filtered supernatant of E. coli Tuner (DE3) transformants encoding the pediocin PA-1 leader, 7 mm wells, triplicate
# Description: (§1) Bacteriocin activity was determined using well diffusion assays (WDAs). For Tuner^TM (DE3) E. coli transformants both the cell supernatant and the cell lysates were analyzed for antimicrobial activity, whilst only the supernatants were analyzed for L. paracasei NFBC338 cells. Supernatant was isolated by centrifugation of the liquid cultures at 4000 RCF for 15 min, these supernatants were then filtered using 0.20 μm membrane filters. For cell lysates, cell pellets were resuspended in 5 ml of phosphate-buffered saline (PBS), cells were lysed by sonication using a MSE Soniprep 150 (MSE, London, UK). Lysates were subsequently centrifuged at 4000 RCF for 15 min and the resulting supernatants were filtered using 0.20 μm membrane filters. For the indicator plates, 50 μl of an overnight culture of the indicator strain was added to the appropriate media containing 1% agar. Plates were cooled and 7 mm wells were bored in the agar. 50 μl of the cell supernatants/lysates being tested were added to each well and plates were refrigerated for 2 h prior to incubation under the appropriate conditions. WDAs were carried out in triplicate for each bacteriocin.
# (§2) E. coli Tuner^TM (DE3) cells transformed with the newly constructed plasmids were grown in LB supplemented with glucose to maintain a low-copy number and bacteriocin expression was induced by co-incubation of the clones with 50 μM IPTG for 3 h. WDAs were used to identify bacteriocin activity from the bacterial supernatants and cell lysates. Bacteriocins were exclusively found in the bacterial supernatant. Antimicrobial activity was lower in cases where the native leader of the bacteriocin sequence was used; with only four of the nine strains displaying zones of inhibition against a sensitive indicator (pediocin 20336a has an identical leader to pediocin PA-1). For expression in L. paracasei NFBC338, cells were transformed by electroporation with the bacteriocin-containing pNZ44 vectors. Positive transformants were grown overnight and the neutralized cell free supernatant was used to identify bacteriocin production in WDAs.
# (§3) The spectrum of activity was determined using WDAs against 32 indicator strains for bacteriocins produced by the E. coli transformants encoding the pediocin leader (Table 2). Despite being of the same class of bacteriocins, these novel antimicrobials display a varying spectrum of activity. […] Many of these bacteriocins, however, can inhibit a wide range of Gram positive bacteria including potential pathogens such as Enterococcus faecalis. As with most class IIa bacteriocins, these also display potent anti-listerial activity.
# E.mundtii LMG 10748 = test: as above; assay type: cell-based; settings: 50 μl filtered supernatant of E. coli Tuner (DE3) transformants encoding the pediocin PA-1 leader, 7 mm wells, triplicate
# Description: as §1, §2, §3
# [2] = tested on: Enterococcus faecalis LMG 7397; test: as above; assay type: cell-based; settings: 50 μl filtered supernatant of E. coli Tuner (DE3) transformants encoding the pediocin PA-1 leader, 7 mm wells, 1% agar, triplicate
# Description: as §1, §2, §3
# L. amylophilus DSM 20509 = test: as above; assay type: cell-based; settings: 50 μl filtered supernatant of E. coli Tuner (DE3) transformants encoding the pediocin PA-1 leader, 7 mm wells, triplicate
# Description: as §1, §2, §3
# L. mali DSM 20444 = test: as above; assay type: cell-based; settings: 50 μl filtered supernatant of E. coli Tuner (DE3) transformants encoding the pediocin PA-1 leader, 7 mm wells, triplicate
# Description: as §1, §2, §3
# [3] = tested on: Li. monocytogenes DPC 6893; test: as above; assay type: cell-based; settings: 50 μl filtered supernatant of E. coli Tuner (DE3) transformants encoding the pediocin PA-1 leader, 7 mm wells, triplicate
# Description: as §1, §2, §3
# [4] = tested on: Li. monocytogenes DPC 6894; test: as above; assay type: cell-based; settings: 50 μl filtered supernatant of E. coli Tuner (DE3) transformants encoding the pediocin PA-1 leader, 7 mm wells, triplicate
# Description: as §1, §2, §3
# [5] = tested on: Li. monocytogenes WSL 1416; test: as above; assay type: cell-based; settings: 50 μl filtered supernatant of E. coli Tuner (DE3) transformants encoding the pediocin PA-1 leader, 7 mm wells, triplicate
# Description: as §1, §2, §3
# [6] = tested on: Listeria innocua DPC 3572; test: as above; assay type: cell-based; settings: 50 μl filtered supernatant of E. coli Tuner (DE3) transformants encoding the pediocin PA-1 leader, 7 mm wells, triplicate
# Description: as §1, §2, §3
# P. clausenii DSM 14800 = test: as above; assay type: cell-based; settings: 50 μl filtered supernatant of E. coli Tuner (DE3) transformants encoding the pediocin PA-1 leader, 7 mm wells, triplicate
# Description: as §1, §2, §3
# [7] = tested on: P. ethanolidurans DSM 22301; test: as above; assay type: cell-based; settings: 50 μl filtered supernatant of E. coli Tuner (DE3) transformants encoding the pediocin PA-1 leader, 7 mm wells, triplicate
# Description: as §1, §2, §3
# [8] = tested on: Pediococcus stilesii DSM 18001; test: as above; assay type: cell-based; settings: 50 μl filtered supernatant of E. coli Tuner (DE3) transformants encoding the pediocin PA-1 leader, 7 mm wells, triplicate
# Description: as §1, §2, §3
# 32 indicator strains = test: Well diffusion assays against the panel of 32 indicator strains; assay type: cell-based; settings: for Total no. of strains inhibited: of 32 indicator strains, supernatant of E. coli transformants encoding the pediocin leader; for antimicrobial activity / spectrum, in words: crude supernatant from the E. coli heterologous host, pediocin PA-1 leader
# Description: as §1, §2, §3
# L. innocua DPC3572 = test: Bacteriocin activity (BU/ml), dilution series in well diffusion assay; assay type: cell-based, Listeria innocua; settings: for Bacteriocin Activity (BU/ml) vs. L. innocua DPC3572: inverse of the highest dilution of bacterial supernatant showing activity in a well diffusion assay
# Description: as §1, §2
# L. apodemi DSM 16654 = test: Well diffusion assay, spectrum of bacteriocin activity; assay type: cell-based; settings: 50 μl filtered supernatant of E. coli Tuner (DE3) transformants encoding the pediocin PA-1 leader, 7 mm wells, triplicate
# Description: as §1, §2, §3
# L. crustorum JCM 15951 = test: as above; assay type: cell-based; settings: 50 μl filtered supernatant of E. coli Tuner (DE3) transformants encoding the pediocin PA-1 leader, 7 mm wells, triplicate
# Description: as §1, §2, §3
# L. nodensis DSM 16982 = test: as above; assay type: cell-based; settings: 50 μl filtered supernatant of E. coli Tuner (DE3) transformants encoding the pediocin PA-1 leader, 7 mm wells, triplicate
# Description: as §1, §2, §3
# L. plantarum DSM 13273 = test: as above; assay type: cell-based; settings: 50 μl filtered supernatant of E. coli Tuner (DE3) transformants encoding the pediocin PA-1 leader, 7 mm wells, triplicate
# Description: as §1, §2, §3
# [9] = produced by E. coli Tuner (DE3)
# [10] = produced by L. paracasei NFBC338, neutralized cell free supernatant
substance,measurement,setting,value
"–KYYGNGVHCG-KKTCYVDWGQATASIGKIIVNGWTQHGPWAHR———- (disulfide) [Penocin A (PenA), previously characterized class IIa bacteriocin, here encoded by P. pentosaceus DSM 20336, heterologously expressed]",radius of the zone of inhibition,[1],1.33 ± 0.94 millimeters
same,radius of the zone of inhibition,E.mundtii LMG 10748,1.33 ± 0.94 millimeters
same,radius of the zone of inhibition,[2],0.67 ± 0.47 millimeters
same,radius of the zone of inhibition,L. amylophilus DSM 20509,0.67 ± 0.47 millimeters
same,radius of the zone of inhibition,L. mali DSM 20444,1.50 ± 1.08 millimeters
same,radius of the zone of inhibition,[3],0.67 ± 0.47 millimeters
same,radius of the zone of inhibition,[4],0.67 ± 0.47 millimeters
same,radius of the zone of inhibition,[5],0.67 ± 0.47 millimeters
same,radius of the zone of inhibition,[6],2.50 ± 0.41 millimeters
same,radius of the zone of inhibition,P. clausenii DSM 14800,1 ± 0.82 millimeters
same,radius of the zone of inhibition,[7],2 ± 1.41 millimeters
same,radius of the zone of inhibition,[8],0.67 ± 0.47 millimeters
same,Total no. of strains inhibited,32 indicator strains,12
same,Bacteriocin Activity (BU/ml) vs. L. innocua DPC3572,L. innocua DPC3572; [9],++ (++ = 320 – 2560 BU/ml)
same,Bacteriocin Activity (BU/ml) vs. L. innocua DPC3572,L. innocua DPC3572; [10],+ (+ = 0 – 160 BU/ml)
"—-KYYGNGLHIPKHGKPYINWGQAIQSIGKISYHGWVNGITSGAAGVGRH [Acidicin (Acd), novel pediocin-like class IIa bacteriocin encoded by L. acidipiscis DSM 15836, heterologously expressed]",radius of the zone of inhibition,L. mali DSM 20444,1.50 ± 0.41 millimeters
same,"antimicrobial activity / spectrum, in words",32 indicator strains,displayed activity exclusively against L. mali
same,Total no. of strains inhibited,32 indicator strains,1
"–KYYGNGVSCG-KHTCKVNWGQAWNESVNRWGNSWVNGLTGLRQH— (disulfide) [Futcin (Fut), novel pediocin-like class IIa bacteriocin encoded by L. futsaii JCM 17355, heterologously expressed]",radius of the zone of inhibition,[1],2 ± 0 millimeters
same,radius of the zone of inhibition,E.mundtii LMG 10748,1.83 ± 0.24 millimeters
same,radius of the zone of inhibition,[2],1.67 ± 0.47 millimeters
same,radius of the zone of inhibition,L. apodemi DSM 16654,0.33 ± 0.47 millimeters
same,radius of the zone of inhibition,L. mali DSM 20444,2.17 ± 0.85 millimeters
same,radius of the zone of inhibition,[4],0.83 ± 0.24 millimeters
same,radius of the zone of inhibition,[5],1 ± 0 millimeters
same,radius of the zone of inhibition,[6],2.00 ± 0 millimeters
same,radius of the zone of inhibition,[7],3 ± 0 millimeters
same,Total no. of strains inhibited,32 indicator strains; listed as Fut,9
same,Total no. of strains inhibited,32 indicator strains; listed as futcin,nine
same,Bacteriocin Activity (BU/ml) vs. L. innocua DPC3572,L. innocua DPC3572; [9],+ (+ = 0 – 160 BU/ml)
"SRYYGNGITCG-KHKCTVNWGQAWTCGVNRLANFGH–G————–NC— (bicyclic or more) [Agilicin (Agl), novel pediocin-like class IIa bacteriocin encoded by L. agilis DSM 20509, heterologously expressed]",radius of the zone of inhibition,[1],3.33 ± 0.47 millimeters
same,radius of the zone of inhibition,E.mundtii LMG 10748,3 ± 0 millimeters
same,radius of the zone of inhibition,[2],2.17 ± 0.24 millimeters
same,radius of the zone of inhibition,L. apodemi DSM 16654,2.67 ± 0.47 millimeters
same,radius of the zone of inhibition,L. crustorum JCM 15951,0.33 ± 0.47 millimeters
same,radius of the zone of inhibition,L. mali DSM 20444,4.50 ± 0.41 millimeters
same,radius of the zone of inhibition,L. nodensis DSM 16982,3.50 ± 0.71 millimeters
same,radius of the zone of inhibition,L. plantarum DSM 13273,0.33 ± 0.47 millimeters
same,radius of the zone of inhibition,[3],2 ± 0 millimeters
same,radius of the zone of inhibition,[4],4 ± 0 millimeters
same,radius of the zone of inhibition,[5],2 ± 0.82 millimeters
same,radius of the zone of inhibition,[6],5 ± 0 millimeters
same,radius of the zone of inhibition,P. clausenii DSM 14800,0.67 ± 0.47 millimeters
same,radius of the zone of inhibition,[7],3.33 ± 0.47 millimeters
same,Total no. of strains inhibited,32 indicator strains,14
same,Bacteriocin Activity (BU/ml) vs. L. innocua DPC3572,L. innocua DPC3572; [9],++ (++ = 320 – 2560 BU/ml)
same,Bacteriocin Activity (BU/ml) vs. L. innocua DPC3572,L. innocua DPC3572; [10],++ (++ = 320 – 2560 BU/ml)
"–KYYGNGVSCS-KHSCSVDWGKALTCTINNGAMAWTTGGHQGNHKC—- (bicyclic or more) [Rennicin A (RenA), novel pediocin-like class IIa bacteriocin encoded by L. rennini DSM 20253, heterologously expressed]",radius of the zone of inhibition,[1],2.33 ± 0.47 millimeters
same,radius of the zone of inhibition,E.mundtii LMG 10748,3.33 ± 0.47 millimeters
same,radius of the zone of inhibition,[2],3 ± 0 millimeters
same,radius of the zone of inhibition,L. apodemi DSM 16654,0.67 ± 0.47 millimeters
same,radius of the zone of inhibition,L. mali DSM 20444,1 ± 0 millimeters
same,radius of the zone of inhibition,[3],2 ± 0 millimeters
same,radius of the zone of inhibition,[4],2 ± 1.41 millimeters
same,radius of the zone of inhibition,[5],2.67 ± 0.47 millimeters
same,radius of the zone of inhibition,[6],6.33 ± 0.94 millimeters
same,radius of the zone of inhibition,[7],1.50 ± 0.41 millimeters
same,Total no. of strains inhibited,32 indicator strains,10
same,Bacteriocin Activity (BU/ml) vs. L. innocua DPC3572,L. innocua DPC3572; [9],+ (+ = 0 – 160 BU/ml)
same,Bacteriocin Activity (BU/ml) vs. L. innocua DPC3572,L. innocua DPC3572; [10],+ (+ = 0 – 160 BU/ml)
"–KNYGNGVYCTKKHGYKVDWGQAWSIIGNNSAANSTTRGAAGWKSK—- [Aquaticin (Aqu), novel pediocin-like class IIa bacteriocin encoded by L. aquaticus DSM 21051; peptide not identified by MALDI-TOF]","antimicrobial activity / spectrum, in words",32 indicator strains; listed as Aquaticin,failed to display antimicrobial activity
same,"antimicrobial activity / spectrum, in words",32 indicator strains; listed as aquaticin,activity was not seen
same,Total no. of strains inhibited,32 indicator strains,0
"–KYYGNGVSCG-KHSCSVDWGKATTCTINNSAMAWATSGHQGNHKC—- (bicyclic or more) [Rennicin B (RenB), novel pediocin-like class IIa bacteriocin encoded by L. rennini DSM 20253, heterologously expressed]","antimicrobial activity / spectrum, in words",32 indicator strains,failed to display antimicrobial activity; also recorded: did not display activity
same,Total no. of strains inhibited,32 indicator strains,0
same,"level of activity when expressed in L. paracasei NFBC338, in words",L. innocua DPC3572; expressed in L. paracasei NFBC338,equal levels of activity compared to rennicin A
same,Bacteriocin Activity (BU/ml) vs. L. innocua DPC3572,L. innocua DPC3572; [10],+ (+ = 0 – 160 BU/ml)
